Earlier results on one molecule are cited in patent publication US7067315B2, “Identification of anti-protozoal agents” (President and Fellows of Harvard College, priority 2001, dated 2006).

The series relates to Apicomplexan parasites. The following applies: several Apicomplexan parasites; by net actin filament depolymerization.

For the molecule `C=C1[C@@H](C)[C@H]2[C@H](Cc3ccccc3)NC(=O)[C@]23[C@H](OC(C)=O)/C=C/[C@@](C)(O)C(=O)[C@@H](C)C/C=C/[C@H]3[C@@H]1O` [cytochalsin D], the “inhibition of parasite motility and invasion” value was “inhibits parasite motility and invasion”.
